Source: ChEMBL document CHEMBL1149076, “Sulfamides as novel histone deacetylase inhibitors” (Bioorg Med Chem Lett, 2009)
pEC50, pIC50: −log10 of the molar value. The source made the active and inactive calls. No cut-off for these calls is given here.

Tests used:
Histone deacetylase 1 [1] = target: T1, Histone deacetylase 1 (Homo sapiens, UniProt Q13547); assay: Inhibition of human recombinant C-terminal FLAG-tagged HDAC1 expressed in baculovirus by fluorimetry
[2] = target: Histone deacetylase 2 (Homo sapiens) (UniProt Q92769); assay: Inhibition of human recombinant C-terminal FLAG-tagged HDAC2 expressed in baculovirus by fluorimetry
Sequence of Histone deacetylase 2 (Homo sapiens) (Q92769 whole entry): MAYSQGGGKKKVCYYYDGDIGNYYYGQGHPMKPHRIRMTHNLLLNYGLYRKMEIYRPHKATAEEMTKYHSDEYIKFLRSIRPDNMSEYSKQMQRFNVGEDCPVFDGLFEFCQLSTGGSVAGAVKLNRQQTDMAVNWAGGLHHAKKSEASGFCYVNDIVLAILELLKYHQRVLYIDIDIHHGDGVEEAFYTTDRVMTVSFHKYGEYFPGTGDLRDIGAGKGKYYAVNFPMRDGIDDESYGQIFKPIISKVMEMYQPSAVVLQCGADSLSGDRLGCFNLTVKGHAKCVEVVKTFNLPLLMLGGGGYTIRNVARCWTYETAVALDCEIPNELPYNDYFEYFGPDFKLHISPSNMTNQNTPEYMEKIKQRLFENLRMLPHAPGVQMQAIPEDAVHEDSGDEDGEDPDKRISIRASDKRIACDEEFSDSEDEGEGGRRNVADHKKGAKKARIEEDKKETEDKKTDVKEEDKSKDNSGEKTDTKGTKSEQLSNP

[3] = target: T2, Protein deacetylase HDAC6 (Homo sapiens, UniProt Q9UBN7); assay: Inhibition of human recombinant N-terminal histidine-tagged HDAC6 expressed in baculovirus by fluorimetry
T2 sequence (Q9UBN7 whole entry): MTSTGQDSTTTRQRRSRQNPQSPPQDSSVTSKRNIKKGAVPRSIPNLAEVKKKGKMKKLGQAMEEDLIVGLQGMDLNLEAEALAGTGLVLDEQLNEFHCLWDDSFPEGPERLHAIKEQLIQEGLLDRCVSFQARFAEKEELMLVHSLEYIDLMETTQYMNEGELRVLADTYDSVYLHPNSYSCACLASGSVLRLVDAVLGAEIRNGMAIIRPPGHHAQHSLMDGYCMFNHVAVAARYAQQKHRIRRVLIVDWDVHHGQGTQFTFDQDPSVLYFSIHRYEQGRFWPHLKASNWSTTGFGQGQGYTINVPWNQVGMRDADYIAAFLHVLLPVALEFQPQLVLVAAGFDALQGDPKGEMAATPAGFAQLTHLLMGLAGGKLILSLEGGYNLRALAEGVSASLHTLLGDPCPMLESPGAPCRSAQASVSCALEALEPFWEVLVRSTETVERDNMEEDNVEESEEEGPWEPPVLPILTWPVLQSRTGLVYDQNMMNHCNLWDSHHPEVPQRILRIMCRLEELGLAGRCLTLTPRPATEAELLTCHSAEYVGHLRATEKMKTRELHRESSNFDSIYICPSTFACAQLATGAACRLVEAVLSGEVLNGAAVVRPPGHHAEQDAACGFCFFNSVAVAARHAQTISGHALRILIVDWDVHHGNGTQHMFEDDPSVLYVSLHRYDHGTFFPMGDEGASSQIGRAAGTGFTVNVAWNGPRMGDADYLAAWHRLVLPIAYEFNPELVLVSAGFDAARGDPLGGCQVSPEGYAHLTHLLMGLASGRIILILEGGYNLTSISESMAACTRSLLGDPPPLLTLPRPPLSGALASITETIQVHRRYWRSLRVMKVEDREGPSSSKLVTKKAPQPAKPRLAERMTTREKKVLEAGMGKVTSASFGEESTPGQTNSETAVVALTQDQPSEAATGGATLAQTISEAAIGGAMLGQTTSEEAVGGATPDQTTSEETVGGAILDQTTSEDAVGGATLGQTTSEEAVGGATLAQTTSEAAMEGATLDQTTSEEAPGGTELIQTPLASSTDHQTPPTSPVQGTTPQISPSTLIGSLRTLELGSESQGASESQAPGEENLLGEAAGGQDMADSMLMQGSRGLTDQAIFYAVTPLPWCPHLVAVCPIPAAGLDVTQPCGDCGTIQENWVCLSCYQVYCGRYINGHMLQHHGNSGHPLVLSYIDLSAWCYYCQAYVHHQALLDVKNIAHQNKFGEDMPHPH

[4] = target: T3, Histone deacetylase 8 (Homo sapiens) (UniProt Q9BY41); assay: Inhibition of human recombinant N-terminal histidine-tagged HDAC8 expressed in baculovirus by fluorimetry
T3 sequence (whole entry): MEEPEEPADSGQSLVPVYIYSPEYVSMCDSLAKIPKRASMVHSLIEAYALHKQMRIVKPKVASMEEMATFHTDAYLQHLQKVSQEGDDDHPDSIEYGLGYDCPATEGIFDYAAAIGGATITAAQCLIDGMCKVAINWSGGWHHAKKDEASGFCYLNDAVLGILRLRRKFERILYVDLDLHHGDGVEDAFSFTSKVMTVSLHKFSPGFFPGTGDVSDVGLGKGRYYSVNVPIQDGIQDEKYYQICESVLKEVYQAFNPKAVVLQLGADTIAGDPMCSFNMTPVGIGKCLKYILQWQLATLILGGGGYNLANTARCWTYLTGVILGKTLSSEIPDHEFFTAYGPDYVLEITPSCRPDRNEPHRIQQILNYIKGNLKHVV

[5] = target: Histone deacetylase 5 (Homo sapiens) (UniProt Q9UQL6); assay: Inhibition of human recombinant N-terminal histidine-tagged HDAC5 expressed in baculovirus by fluorimetry
Sequence of Histone deacetylase 5 (Homo sapiens) (Q9UQL6 whole entry): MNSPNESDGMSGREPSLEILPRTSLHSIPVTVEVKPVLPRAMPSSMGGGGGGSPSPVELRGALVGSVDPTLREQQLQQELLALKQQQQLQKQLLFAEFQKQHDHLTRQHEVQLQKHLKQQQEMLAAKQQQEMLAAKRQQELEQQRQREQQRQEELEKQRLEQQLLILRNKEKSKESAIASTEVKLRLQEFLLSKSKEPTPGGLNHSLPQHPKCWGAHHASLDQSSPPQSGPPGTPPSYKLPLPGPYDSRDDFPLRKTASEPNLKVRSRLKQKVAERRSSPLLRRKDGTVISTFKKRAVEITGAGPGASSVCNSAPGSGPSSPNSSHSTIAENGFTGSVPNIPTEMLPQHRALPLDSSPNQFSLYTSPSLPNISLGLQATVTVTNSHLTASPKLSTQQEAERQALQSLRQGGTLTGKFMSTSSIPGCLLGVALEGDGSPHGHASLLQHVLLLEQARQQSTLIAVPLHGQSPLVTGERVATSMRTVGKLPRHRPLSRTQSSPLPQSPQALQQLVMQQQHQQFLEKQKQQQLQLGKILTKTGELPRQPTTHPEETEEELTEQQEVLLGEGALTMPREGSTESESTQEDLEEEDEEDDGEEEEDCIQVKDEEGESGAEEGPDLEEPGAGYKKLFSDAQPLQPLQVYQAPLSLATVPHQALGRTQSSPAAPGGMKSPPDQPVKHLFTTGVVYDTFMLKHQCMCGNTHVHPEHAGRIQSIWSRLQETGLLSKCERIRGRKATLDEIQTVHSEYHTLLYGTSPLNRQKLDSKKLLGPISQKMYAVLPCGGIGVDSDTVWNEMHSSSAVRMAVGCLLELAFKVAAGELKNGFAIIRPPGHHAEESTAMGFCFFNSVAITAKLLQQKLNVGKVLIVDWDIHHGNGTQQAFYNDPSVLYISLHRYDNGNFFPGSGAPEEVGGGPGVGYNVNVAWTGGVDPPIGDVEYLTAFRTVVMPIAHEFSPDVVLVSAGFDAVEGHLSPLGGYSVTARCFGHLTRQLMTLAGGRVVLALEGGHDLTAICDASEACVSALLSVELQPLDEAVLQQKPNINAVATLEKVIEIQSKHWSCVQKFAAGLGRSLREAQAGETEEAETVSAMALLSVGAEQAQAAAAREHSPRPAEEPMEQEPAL

[6] = target: Histone deacetylase 4 (Homo sapiens) (UniProt P56524); assay: Inhibition of human recombinant N-terminal histidine-tagged HDAC4 expressed in baculovirus by fluorimetry
Sequence of Histone deacetylase 4 (Homo sapiens) (P56524 whole entry): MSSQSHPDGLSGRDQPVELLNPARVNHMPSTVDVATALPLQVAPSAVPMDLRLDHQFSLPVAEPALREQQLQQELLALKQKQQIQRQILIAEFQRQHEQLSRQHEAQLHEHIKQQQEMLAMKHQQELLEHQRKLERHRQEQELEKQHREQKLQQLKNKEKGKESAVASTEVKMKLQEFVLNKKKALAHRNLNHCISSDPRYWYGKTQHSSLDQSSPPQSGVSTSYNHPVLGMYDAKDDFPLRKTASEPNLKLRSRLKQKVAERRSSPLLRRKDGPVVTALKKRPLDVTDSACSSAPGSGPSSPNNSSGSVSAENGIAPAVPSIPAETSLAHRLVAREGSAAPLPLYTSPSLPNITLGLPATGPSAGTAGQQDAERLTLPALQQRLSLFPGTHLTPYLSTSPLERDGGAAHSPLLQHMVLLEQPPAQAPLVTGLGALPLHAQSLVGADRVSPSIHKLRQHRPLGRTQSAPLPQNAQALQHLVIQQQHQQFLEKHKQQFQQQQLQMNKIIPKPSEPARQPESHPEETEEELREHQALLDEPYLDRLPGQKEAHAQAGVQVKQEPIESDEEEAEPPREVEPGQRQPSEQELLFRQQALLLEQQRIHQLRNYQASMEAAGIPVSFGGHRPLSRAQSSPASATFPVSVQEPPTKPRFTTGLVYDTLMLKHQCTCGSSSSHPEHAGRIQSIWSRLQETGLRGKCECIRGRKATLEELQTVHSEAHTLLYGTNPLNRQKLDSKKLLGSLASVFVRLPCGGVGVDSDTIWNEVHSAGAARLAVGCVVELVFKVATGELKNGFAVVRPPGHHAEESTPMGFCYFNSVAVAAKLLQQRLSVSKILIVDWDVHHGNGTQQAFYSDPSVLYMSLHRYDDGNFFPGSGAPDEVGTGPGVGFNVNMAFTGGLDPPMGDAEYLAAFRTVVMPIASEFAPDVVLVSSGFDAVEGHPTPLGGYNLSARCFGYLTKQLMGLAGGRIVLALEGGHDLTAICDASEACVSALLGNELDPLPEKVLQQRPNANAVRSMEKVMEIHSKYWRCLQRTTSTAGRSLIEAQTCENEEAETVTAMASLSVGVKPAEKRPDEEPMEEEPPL

[7] = target: Histone deacetylase 3 (Homo sapiens) (UniProt O15379); assay: Inhibition of human recombinant C-terminal FLAG-tagged HDAC3 expressed in baculovirus by fluorimetry
Sequence of Histone deacetylase 3 (Homo sapiens) (O15379 whole entry): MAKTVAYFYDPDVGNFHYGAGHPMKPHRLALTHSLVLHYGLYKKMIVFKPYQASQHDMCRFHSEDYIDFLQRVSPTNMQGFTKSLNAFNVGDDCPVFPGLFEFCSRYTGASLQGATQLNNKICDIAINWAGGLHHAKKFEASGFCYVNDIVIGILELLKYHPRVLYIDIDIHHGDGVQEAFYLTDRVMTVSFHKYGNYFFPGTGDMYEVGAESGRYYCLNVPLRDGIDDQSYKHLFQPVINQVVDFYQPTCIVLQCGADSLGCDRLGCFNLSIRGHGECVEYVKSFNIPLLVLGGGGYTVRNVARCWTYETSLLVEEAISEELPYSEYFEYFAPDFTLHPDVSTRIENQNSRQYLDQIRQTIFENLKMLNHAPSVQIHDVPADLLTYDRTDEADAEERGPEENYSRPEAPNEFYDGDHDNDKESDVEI

[8] = target: T4, Histone deacetylase 7 (Homo sapiens) (UniProt Q8WUI4); assay: Inhibition of human recombinant N-terminal histidine-tagged HDAC7 expressed in baculovirus by fluorimetry
T4 sequence (whole entry): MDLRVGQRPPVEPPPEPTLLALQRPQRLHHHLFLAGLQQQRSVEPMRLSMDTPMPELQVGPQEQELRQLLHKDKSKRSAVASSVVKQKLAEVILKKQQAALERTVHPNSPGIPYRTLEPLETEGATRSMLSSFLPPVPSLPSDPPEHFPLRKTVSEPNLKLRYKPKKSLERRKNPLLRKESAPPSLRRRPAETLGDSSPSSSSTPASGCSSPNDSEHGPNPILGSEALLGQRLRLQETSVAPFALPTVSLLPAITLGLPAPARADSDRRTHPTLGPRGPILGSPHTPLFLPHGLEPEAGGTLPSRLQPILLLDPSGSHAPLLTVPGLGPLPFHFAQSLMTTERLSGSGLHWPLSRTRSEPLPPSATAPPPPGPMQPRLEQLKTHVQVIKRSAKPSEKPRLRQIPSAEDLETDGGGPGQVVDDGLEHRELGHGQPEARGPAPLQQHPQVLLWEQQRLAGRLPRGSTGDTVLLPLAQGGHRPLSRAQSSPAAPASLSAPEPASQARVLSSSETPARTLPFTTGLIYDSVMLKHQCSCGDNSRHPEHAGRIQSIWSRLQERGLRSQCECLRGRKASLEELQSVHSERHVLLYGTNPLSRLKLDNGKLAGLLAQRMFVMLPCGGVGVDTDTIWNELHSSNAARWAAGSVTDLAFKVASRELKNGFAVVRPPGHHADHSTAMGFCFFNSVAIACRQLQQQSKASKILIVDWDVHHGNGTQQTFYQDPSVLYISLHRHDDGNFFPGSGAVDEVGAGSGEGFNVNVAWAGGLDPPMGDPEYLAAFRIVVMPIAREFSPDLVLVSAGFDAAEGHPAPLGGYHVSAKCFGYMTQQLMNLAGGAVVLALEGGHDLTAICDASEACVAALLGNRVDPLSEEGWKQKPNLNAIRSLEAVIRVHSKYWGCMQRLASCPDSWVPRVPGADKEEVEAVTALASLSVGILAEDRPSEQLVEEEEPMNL

Histone deacetylase 1 [9] = target: T1, Histone deacetylase 1; assay: Inhibition of HDAC1 in human 293T cells after 16 hrs by fluorimetry; type: cell-based
T-24 [10] = assay: Induction of histone H3 acetylation in human T24 cells after 3 hrs by ELISA; type: functional, cell-based; settings: T-24, 3 h
T-24 [11] = assay: Induction of alpha tubulin acetylation in human T24 cells after 3 hrs by ELISA; type: functional, cell-based; settings: T-24, 3 h

T1 sequence (Q13547 whole entry): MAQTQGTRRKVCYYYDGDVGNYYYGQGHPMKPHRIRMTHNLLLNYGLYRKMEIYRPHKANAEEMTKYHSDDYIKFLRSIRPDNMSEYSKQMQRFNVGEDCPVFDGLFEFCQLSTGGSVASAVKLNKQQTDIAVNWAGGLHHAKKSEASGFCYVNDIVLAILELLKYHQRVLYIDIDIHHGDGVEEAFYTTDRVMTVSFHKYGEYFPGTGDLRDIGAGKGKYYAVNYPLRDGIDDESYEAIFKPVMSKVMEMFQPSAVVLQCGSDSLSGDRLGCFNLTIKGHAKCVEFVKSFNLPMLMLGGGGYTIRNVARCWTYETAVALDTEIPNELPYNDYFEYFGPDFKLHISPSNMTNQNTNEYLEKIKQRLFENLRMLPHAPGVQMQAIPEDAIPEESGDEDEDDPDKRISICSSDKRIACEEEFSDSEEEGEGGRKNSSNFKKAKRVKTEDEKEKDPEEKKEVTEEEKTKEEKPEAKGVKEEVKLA

Compound | pIC50 (Histone deacetylase 1 [1]) | Activity [2] | pIC50 [3] | Activity [4] | Activity [5] | Activity [6] | Activity [7] | Activity [8] | pIC50 (Histone deacetylase 1 [9]) | pEC50 (T-24 [10]) | pEC50 (T-24 [11])
NS(=O)(=O)NCCCCCC(=O)Nc1ccc2ncccc2c1 | < 5.00 | inactive | 6.31 | – | – | – | – | – | – | – | –
CC(=O)NS(=O)(=O)NCCCCCC(=O)Nc1cccc(-c2ccccc2)c1 | < 5.00 | – | < 5.00 | inactive | inactive | inactive | inactive | inactive | – | – | –
COc1cc(NC(=O)[C@H](CCCCNS(N)(=O)=O)NC(=O)OCc2ccccc2)c2ncccc2c1 | 6.34 | – | 7.22 | – | – | – | – | – | 5.74 | 6.46 | 6.70
NS(=O)(=O)NCCCCCC(=O)Nc1cccc(-c2ccccc2)c1 | < 5.00 | – | 5.96 | inactive | inactive | inactive | inactive | inactive | – | – | –
Nc1ccccc1NC(=O)CCCCCCC(=O)Nc1cccc(-c2ccccc2)c1 | 6.31 | – | < 4.30 | – | – | – | – | – | – | – | –
NS(=O)(=O)NCCCCC(=O)Nc1cccc(-c2ccccc2)c1 | < 5.00 | – | < 5.00 | inactive | inactive | inactive | inactive | inactive | – | – | –
NS(=O)(=O)NCCCCCC(=O)Nc1cnc2ccccc2c1 | < 5.00 | inactive | 6.15 | – | – | – | – | – | – | – | –
O=C(CCCCCCC(=O)Nc1cccc(-c2ccccc2)c1)NO | 8.05 | – | 8.05 | – | – | – | – | – | – | – | –
NS(=O)(=O)OCCCCCC(=O)Nc1cccc(-c2ccccc2)c1 | < 5.00 | – | < 5.00 | inactive | inactive | inactive | inactive | inactive | – | – | –
CNS(=O)(=O)NCCCCCC(=O)Nc1cccc(-c2ccccc2)c1 | < 5.00 | – | < 5.00 | inactive | inactive | inactive | inactive | inactive | – | – | –
NS(=O)(=O)NC(=O)CCCCCC(=O)Nc1cccc(-c2ccccc2)c1 | < 5.00 | – | < 5.00 | inactive | inactive | inactive | inactive | inactive | – | – | –
NS(=O)(=O)NCCCCCC(=O)Nc1ccccc1 | < 5.00 | – | 5.82 | – | – | – | – | – | – | – | –
CN(C)S(=O)(=O)NCCCCCC(=O)Nc1cccc(-c2ccccc2)c1 | < 5.00 | – | < 5.00 | inactive | inactive | inactive | inactive | inactive | – | – | –
NS(=O)(=O)NCCCCCCC(=O)Nc1cccc(-c2ccccc2)c1 | < 5.00 | – | < 5.00 | inactive | inactive | inactive | inactive | inactive | – | – | –
NS(=O)(=O)NCCCC[C@H](NC(=O)OCc1ccccc1)C(=O)Nc1nc(-c2ccccc2)cs1 | 6.80 | – | 6.74 | – | – | – | – | – | 5.64 | 6.15 | 6.22
CN(CCCCCC(=O)Nc1cccc(-c2ccccc2)c1)S(N)(=O)=O | < 5.00 | – | < 5.00 | inactive | inactive | inactive | inactive | inactive | – | – | –
NS(=O)(=O)NCCCCCC(=O)Nc1nc(-c2ccccc2)cs1 | < 5.00 | inactive | 6.05 | – | – | – | – | – | < 4.30 | 4.70 | 5.46
NS(=O)(=O)NCCCCCC(=O)Nc1cccc2cccnc12 | < 5.00 | inactive | 6.41 | – | – | – | – | – | – | – | –
COc1cc(NC(=O)CCCCCNS(N)(=O)=O)c2ncccc2c1 | < 5.00 | inactive | 6.36 | – | – | – | – | – | < 4.30 | < 4.60 | 6.00
